Laboratory results published in paper PMC7562719, “Discovery of a CNS penetrant small molecule SMN2 splicing modulator with improved tolerability for spinal muscular atrophy” (Scientific Reports, 2020).
Where two headings read alike, the source gives them in different places.

Columns and labels:
[1] = test system: 106 representative proteins that are drug discovery targets; test: Eurofins selectivity panel of 106 representative proteins
[2] = pharmacokinetic study in adult wild type FVB mice, oral; format: in vivo; conditions: for Kp / Cmax / MRT / Tmax: male, mouse
Description: TEC-1 was administered at doses of 2, 6, and 20 mg/kg for oral (suspended in 0.5% methyl cellulose aqueous solution) to male FVB mice (aged 8 weeks, 3 mice per a time point). After 0.5–120 h administration, blood and brain samples were collected. Blood samples with heparin were centrifuged for plasma collection. Brain samples were homogenized in saline 20% (w/v). The samples were deproteinized with acetonitrile and following by centrifugation, and the supernatants were analyzed by LC/MS/MS to obtain TEC-1 concentrations of the plasma and brain.

[3] = brain, 2 mg/kg oral single, adult FVB mice
[4] = brain, 6 mg/kg oral single, adult FVB mice
[5] = brain, 20 mg/kg oral single, adult FVB mice
[6] = plasma, 2 mg/kg oral single, adult FVB mice
[7] = plasma, 6 mg/kg oral single, adult FVB mice
[8] = plasma, 20 mg/kg oral single, adult FVB mice

In the case of `Cc1cn2nc(-c3nc4ccc(N5CCN(C)CC5)cc4c(=O)[nH]3)cc2c(C)n1` [TEC-1, 2-(4,6-dimethylpyrazolo[1,5-a]pyrazin-2-yl)-6-(4-methylpiperazin-1-yl)quinazolin-4(3H)-one], the “effect on biological activity of 106 representative proteins” value [1] was “weakly affected the biological activity of only two targets”, the “AUC0–24 h” value [2, 3] was 2234.1 ng･h/g and the “AUC0–120 h” value [2, 3] was 2433.7 ng･h/g. The “AUC0–24 h” value [2, 4] was 3956.7 ng･h/g, the “AUC0–120 h” value [2, 4] was 8011.1 ng･h/g and the “AUC0–24 h” value [2, 5] was 6322.1 ng･h/g. For the same compound, the “AUC0–120 h” value [2, 5] was 29429.3 ng･h/g, the Kp ([2]; brain and plasma, other: intraperitoneal (juvenile) and oral (adult), juvenile (intraperitoneal) and adult (oral) FVB mice, read-out: Kp values (ratio of the compound in the brain and plasma)) was over 1 and the Kp ([2]; brain/plasma, 2 mg/kg oral single, adult FVB mice, read-out: Kp (AUC0–120h ratio)) was 1.2. For the same compound, the Kp ([2]; brain/plasma, 6 mg/kg oral single, adult FVB mice, read-out: Kp (AUC0–120h ratio)) was 1.2, the Kp ([2]; brain/plasma, 20 mg/kg oral single, adult FVB mice, read-out: Kp (AUC0–120h ratio)) was 1.8 and the Cmax [2, 3] was 168 ng/g. The MRT [2, 3] was 10.7 h, the Tmax [2, 3] was 1 h and the Cmax [2, 4] was 195 ng/g. The MRT [2, 4] was 29.5 h, the Tmax [2, 4] was 7 h and the Cmax [2, 5] was 360 ng/g. The MRT [2, 5] was 54.6 h, the Tmax [2, 5] was 32 h and the MRT [2, 6] was 10.7 h. It also gave a Tmax [2, 6] of 3 h, a Cmax ([2]; plasma, 2 mg/kg oral single, adult FVB mice, mean, n = 3) of 136 ng/mL and a Cmax [2, 7] of 157 ng/mL. It also gave an MRT [2, 7] of 33.1 h, a Tmax [2, 7] of 3 h and a Cmax [2, 8] of 222 ng/mL. The MRT [2, 8] was 48.5 h, the Tmax [2, 8] was 16 h and the “AUC0–24 h” value [2, 6] was 1906.7 ng･h/mL. The “AUC0–120 h” value [2, 6] was 2095.9 ng･h/mL, the “AUC0–24 h” value [2, 7] was 3100.3 ng･h/mL and the “AUC0–120 h” value [2, 7] was 6647.9 ng･h/mL. For the same compound, the “AUC0–24 h” value [2, 8] was 4950.5 ng･h/mL and the “AUC0–120 h” value [2, 8] was 16350.5 ng･h/mL.
